PubChem BioAssay (NCI)
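Dose response: 5 concentrations. Exposure: 48 h. Format: 96-well plates. Endpoint: linear interpolation; highest concentration if not reached. Definition used: TGI = concentration required for complete inhibition of growth.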

Assays:
Test in all cases: growth of human tumour cells (NCI), 48 h
[1] = tested on: SW-620 colon
[2] = tested on: DU-145 prostate
[3] = tested on: DLD-1 colon
[4] = tested on: SNB-75 CNS
[5] = tested on: SF-295 CNS
[6] = tested on: MDA-N
[7] = tested on: U251 CNS
[8] = tested on: CCRF-CEM leukemia
[9] = tested on: HCT-116 colon
[10] = tested on: SN12C renal
[11] = tested on: NCI-H522 lung
[12] = tested on: K-562 leukemia
[13] = tested on: CAKI-1 renal
[14] = tested on: NCI-H460 lung
[15] = tested on: KM20L2 colon
[16] = tested on: A549 NSCLC
[17] = tested on: HS 578T breast
[18] = tested on: RXF 393 renal
[19] = tested on: UO-31 renal
[20] = tested on: DMS 114 small cell lung
[21] = tested on: UACC-62 melanoma
[22] = tested on: KM12 colon
[23] = tested on: SK-MEL-28 melanoma
[24] = tested on: SNB-19 CNS
[25] = tested on: MALME-3M melanoma
[26] = tested on: OVCAR-8 ovarian
[27] = tested on: UACC-257 melanoma
[28] = tested on: LOX IMVI melanoma
[29] = tested on: T-47D breast
[30] = tested on: M14 melanoma
[31] = tested on: NCI/ADR-RES ovarian
[32] = tested on: SK-OV-3 ovarian
[33] = tested on: LXFL 529 NSCLC
[34] = tested on: HL-60(TB) leukemia
[35] = tested on: OVCAR-5 ovarian
[36] = tested on: HOP-92 NSCLC
[37] = tested on: MOLT-4 leukemia
[38] = tested on: XF 498 CNS
[39] = tested on: SF-268 CNS
[40] = tested on: SF-539 CNS
[41] = tested on: HT29 colon
[42] = tested on: MCF7 breast
[43] = tested on: M19-MEL melanoma
[44] = tested on: COLO 205 colon
[45] = tested on: SK-MEL-5 melanoma
[46] = tested on: 786-0 renal
[47] = tested on: ACHN renal
[48] = tested on: SR leukemia
[49] = tested on: NCI-H226 lung
[50] = tested on: HCC-2998 colon
[51] = tested on: OVCAR-4 ovarian
[52] = tested on: IGROV1 ovarian
[53] = tested on: BT-549 breast
[54] = tested on: SK-MEL-2 melanoma
[55] = tested on: HOP-62 NSCLC
[56] = tested on: DMS 273 small cell lung
[57] = tested on: HOP-18 NSCLC
[58] = tested on: NCI-H23 lung
[59] = tested on: EKVX NSCLC
[60] = tested on: PC-3 prostate
[61] = tested on: MDA-MB-231 breast
[62] = tested on: RPMI-8226 leukemia
[63] = tested on: HCT-15 colon
[64] = tested on: MDA-MB-435
[65] = tested on: OVCAR-3 ovarian
[66] = tested on: SNB-78 CNS
[67] = tested on: TK-10 renal
[68] = tested on: RXF-631 renal
[69] = tested on: A498 renal

`Nc1ccc(Cn2ccc3c4c(N)nc(N)nc4ccc32)cc1` gave a TGI [1] of 2.27 µM, a TGI [2] of 14.3 µM and a TGI [3] of 17 µM. For the same compound, the TGI [4] was 12.5 µM, the TGI [5] was 2.15 µM and the TGI [6] was 14.2 µM. For the same compound, the TGI [7] was 5.02 µM, the TGI [8] was 2.71 µM and the TGI [9] was 1.5 µM. It also gave a TGI [10] of 8.67 µM, a TGI [11] of 3.72 µM and a TGI [12] of 2.44 µM. It also gave a TGI [13] of 18 µM, a TGI [14] of 5.58 µM and a TGI [15] of 10.8 µM. For the same compound, the TGI [16] was 15.2 µM, the TGI [17] was 7.32 µM and the TGI [18] was 15.4 µM. The TGI [19] was 19 µM, the TGI [20] was 1.94 µM and the TGI [21] was 1.5 µM. It also gave a TGI [22] of 12.2 µM, a TGI [23] of 5.32 µM and a TGI [24] of 17.6 µM. For the same compound, the TGI [25] was 7.04 µM, the TGI [26] was 22 µM and the TGI [27] was 8.02 µM. For the same compound, the TGI [28] was 1.21 µM, the TGI [29] was 6.18 µM and the TGI [30] was 6.45 µM. The TGI [31] was over 100 µM, the TGI [32] was 25.4 µM and the TGI [33] was 15.7 µM. The TGI [34] was 1.37 µM, the TGI [35] was 19.4 µM and the TGI [36] was 8.7 µM. The TGI [37] was over 51.7 µM, the TGI [38] was 2.9 µM and the TGI [39] was 25.6 µM. It also gave a TGI [40] of 4.15 µM, a TGI [41] of 2.18 µM and a TGI [42] of 14.3 µM. It also gave a TGI [43] of 5.59 µM, a TGI [44] of 2.72 µM and a TGI [45] of 8.24 µM. The TGI [46] was 16.4 µM, the TGI [47] was 6.58 µM and the TGI [48] was 4.74 µM. It also gave a TGI [49] of 27.7 µM, a TGI [50] of 3 µM and a TGI [51] of 4.75 µM. For the same compound, the TGI [52] was 18.7 µM, the TGI [53] was 16.4 µM and the TGI [54] was 5.15 µM. It also gave a TGI [55] of 5.09 µM, a TGI [56] of 11.9 µM and a TGI [57] of 21.9 µM. It also gave a TGI [58] of 7.86 µM, a TGI [59] of 23.1 µM and a TGI [60] of 16.8 µM. The TGI [61] was 3.48 µM, the TGI [62] was over 100 µM and the TGI [63] was 17.6 µM. The TGI [64] was 6.15 µM, the TGI [65] was 2.51 µM and the TGI [66] was 32.5 µM. It also gave a TGI [67] of 13.6 µM.
For `NC(=O)C(=O)C1C(=O)N(c2ccccc2)N=C1N` (stereo not given), the TGI [1] was over 100 µM, the TGI [3] was over 100 µM and the TGI [4] was over 100 µM. The TGI [5] was over 100 µM, the TGI [9] was over 100 µM and the TGI [10] was over 100 µM. The TGI [11] was over 100 µM, the TGI [12] was over 100 µM and the TGI [13] was over 100 µM. The TGI [14] was over 100 µM, the TGI [15] was over 100 µM and the TGI [16] was over 100 µM. For the same compound, the TGI [19] was over 100 µM, the TGI [21] was over 100 µM and the TGI [22] was over 100 µM. For the same compound, the TGI [23] was over 100 µM, the TGI [24] was over 100 µM and the TGI [25] was over 100 µM. It also gave a TGI [26] of over 100 µM, a TGI [27] of over 100 µM and a TGI [28] of over 100 µM. The TGI [30] was over 100 µM, the TGI [32] was over 100 µM and the TGI [33] was over 100 µM. For the same compound, the TGI [34] was over 100 µM, the TGI [35] was over 100 µM and the TGI [36] was over 100 µM. The TGI [37] was over 100 µM, the TGI [38] was over 100 µM and the TGI [39] was over 100 µM. For the same compound, the TGI [40] was over 100 µM, the TGI [41] was over 100 µM and the TGI [44] was over 100 µM. For the same compound, the TGI [46] was over 100 µM, the TGI [47] was over 100 µM and the TGI [48] was over 100 µM. The TGI [49] was over 100 µM, the TGI [50] was over 100 µM and the TGI [51] was over 100 µM. It also gave a TGI [52] of over 100 µM, a TGI [54] of over 100 µM and a TGI [55] of over 100 µM. The TGI [56] was over 100 µM, the TGI [58] was over 100 µM and the TGI [62] was over 100 µM. For the same compound, the TGI [63] was over 100 µM, the TGI [65] was over 100 µM and the TGI [66] was over 100 µM. For the same compound, the TGI [67] was over 100 µM.
`COc1cc([C@@H]2OC(=O)C3C2C(=O)O[C@H]3c2ccc(O)c(OC)c2)ccc1O` (stereo not given in full) gave a TGI [1] of over 100 µM, a TGI [3] of over 100 µM and a TGI [4] of over 100 µM. For the same compound, the TGI [5] was over 100 µM, the TGI [7] was over 100 µM and the TGI [68] was over 100 µM. For the same compound, the TGI [8] was over 100 µM, the TGI [9] was over 100 µM and the TGI [10] was over 100 µM. The TGI [12] was over 100 µM, the TGI [13] was over 100 µM and the TGI [14] was over 100 µM. For the same compound, the TGI [15] was over 100 µM, the TGI [16] was over 100 µM and the TGI [18] was over 100 µM. For the same compound, the TGI [19] was over 100 µM, the TGI [20] was over 100 µM and the TGI [21] was over 100 µM. It also gave a TGI [22] of over 100 µM, a TGI [23] of over 100 µM and a TGI [24] of over 100 µM. It also gave a TGI [25] of over 100 µM, a TGI [26] of over 100 µM and a TGI [27] of over 100 µM. The TGI [28] was over 100 µM, the TGI [30] was over 100 µM and the TGI [32] was over 100 µM. It also gave a TGI [33] of over 100 µM, a TGI [35] of over 100 µM and a TGI [36] of over 100 µM. The TGI [37] was over 100 µM, the TGI [39] was over 100 µM and the TGI [40] was over 100 µM. The TGI [41] was over 100 µM, the TGI [43] was over 100 µM and the TGI [44] was over 100 µM. The TGI [45] was over 100 µM, the TGI [46] was over 100 µM and the TGI [47] was over 100 µM. The TGI [48] was over 100 µM, the TGI [49] was over 100 µM and the TGI [50] was over 100 µM. It also gave a TGI [51] of over 100 µM, a TGI [52] of over 100 µM and a TGI [55] of over 100 µM. It also gave a TGI [56] of over 100 µM, a TGI [57] of over 100 µM and a TGI [58] of over 100 µM. For the same compound, the TGI [62] was over 100 µM, the TGI [69] was over 100 µM and the TGI [63] was over 100 µM. It also gave a TGI [65] of over 100 µM, a TGI [66] of over 100 µM and a TGI [67] of over 100 µM.
